Laboratory results as given in patent US20190142860A1, “NUCLEIC ACID BASED TIA-1 INHIBITORS” (Aquinnah Pharmaceuticals, Inc., priority 2015, published 2019).
“Also recorded” adds a separate entry of the source. One block for each molecule: values may come before it. Residues, ends and D or L forms follow the SMILES beside them. *: point of attachment. Cbz = O=C(OCc1ccccc1)*

Key:
[1] = molecular target: microtubules (mouse brain); assay: microtubule pelleting in RAB buffer / immunoblot, mouse cortex
[2] = test system: granules positive for TIA1 and phospho-tau (P-S396/404, PHF1); assay: Tau kinase inhibitor study: TIA1+ SGs and PHF1+ tau granules; type: cell-based, mouse; conditions: HT22 cells, TIA1 and WT tau, 24 hrs; for formation of granules positive for TIA1 and phospho-tau (SGs and tau granules): XXVI 20 μM, CDK2/5 inhibitor 5 μM, SB203580 20 μM, 39621 20 μM, PP2 20 nM
[3] = test system: tau-induced TIA1+ SGs in HT22 cells; assay: PKR / PERK inhibitors on tau-mediated SG formation; type: cell-based, mouse; conditions: TIA1 ± WT tau, 24 hrs, C16 1 μM, GSK2606414 50 nM
Method: The eukaryotic translation initiation factor eIF2α is regulated by phosphorylation. […] SGs were induced by transfection with TIA1±WT tau. After 24 hrs the cells were treated with inhibitors of PKR (C16, 1 μM, Sigma) or PERK (GSK2606414, 50 nM, EMD/Millipore), and then SG number was quantified after 24 hrs.

[4] = test system: stress granules (SGs) in HT22 cells; assay: Stress granule / tau granule formation in HT22 cells expressing tau and TIA1; type: cell-based, mouse; conditions: for formation of tau granules: neuronal cell lines
Method: HT22 cells were transfected using Lipofectamine (Invitrogen), incubated 24 hours, and treated after 24 hrs (25 uM salubrinal, 5 μg/ml puromycin, 10 μg/ml cycloheximide). At 48 hours the cells were fixed in 4% PFA.
HT22 cells were maintained in DMEM (4.5 g glucose/L) media supplemented with 10% fetal bovine serum, lx PenStrep (Invitrogen), lx L-Glutamine (Invitrogen), and 1× non-essential amino acids. Cells were passaged twice a week 1:5. Cells were seeded on 18 mm poly-D-lysine coated coverslips in 12-well plates (75,000/coverslip) one day prior to transfection in […] media (DMEM, 10% FBS). Cells were transfected at 1:2 ratio DNA:Lipofectamine (Invitrogen), delivering 2 μg total DNA per well. Lipofectamine in OptiMEM (Invitrogen) is incubated for 5 min prior to the addition of the DNA/OptiMEM. The transfection mixture is then allowed to incubate for 20 min at room temperature prior to being added to the cells. 500 μL of media is removed and 500 μL of transfection mixture is added dropwise to each well. Cells were incubated 24 hours, after which the addition of 25 μM salubrinal may be added to half of the plates and allowed to incubate for 24 hours. At 48 hours post-transfection, the cells were fixed in 4% PFA and stored in PBS.
Granule count cells: SG density was quantified using Image J software by calculating the number of puncta […] per 63× frame controlled for the number of cells. This was done by thresholding images, and using the analyze particle functionality. Quantifications of granule counts and area in primary neurons was done in ImageJ by using a free-hand tool to outline the neuron, thresholding the image, creating a mask over the nucleus, and using the particle analyzer tool.

[5] = test system: tau granules in primary hippocampal neurons; assay: Tau granules in dendrites of primary tau−/− hippocampal neurons; type: cell-based, mouse; conditions: WT or P301L tau ± TIA1, treated at DIV21, cycloheximide 10 μg/ml
Method: Primary hippocampal cultures were generated from P0 pups from C57Bl/6 WT, TIA1 −/−, or tau −/− mice. The hippocampus was dissected out in Hank's Balanced Salt Solution buffered with HEPES and PenStrep, and dissociated with 0.125% trypsin for 15 min at 37° C., followed by trituration. Dissociated cells were plated on plates of coverslips pre-coated with Poly-D lysine (100 μg/mL, Sigma). Neurons were grown for 21 days in Neurobasal medium supplemented with B-27 (Invitrogen)
At DIV3 neurons were transduced with AAV9-TIA1-mRFP or AAV9-mRFP virus (MOI 20). At DIV7 neurons were transduced with AAV1-WT tau-V5 or AAV1-P301L tau-V5 virus (MOI 20). Neurons were fixed for immunolabeling and confocal microscopy in 4% PFA, or lysed in via sonication in PBS with protease and phosphatase inhibitors.
Granule count neurons: Quantifications of granule counts and area in primary neurons was done in ImageJ by using a free-hand tool to outline the neuron, thresholding the image, creating a mask over the nucleus, and using the particle analyzer tool.

[6] = test system: primary hippocampal neurons; assay: Dendrite length of primary hippocampal neurons (MAP2, NeuronJ); type: cell-based, mouse; conditions: Tau−/− and TIA1−/− neurons, WT or P301L tau ± TIA1, DIV21; puromycin 5 μg/ml, cycloheximide 10 μg/ml
Text: SG density and dendritic processes were quantified using Image J (using ImageJ plug-ins NeuronJ, tracing MAP2 positive processes for dendritic measurements). Granule movement and formation was quantified using Bitplane Imaris Track software (Imaris).
Measurements of dendritic processes were done using ImageJ plug-ins NeuronJ. Using the software to trace MAP2 positive processes of individual cells yields a pixel measurement that can then be back calculated to micrometers using the microscope scaling parameters.

tau = assay: Tau levels with TIA1 over-expression under proteasome or autophagy inhibition, immunoblot in HT22 cells; type: cell-based, mouse; conditions: overnight, MG132 5 μM, chloroquine 50 μM
Method: Immunoblots were preformed using gradient PAGE on a 15-well 4-12% Bis-Tris gel (Invitrogen). Blocking was done in 5% milk for lhr at RT. Primary antibody incubation was at 4° C. overnight with 1:7,500 mouse monoclonal Tau13, 1:500 mouse monoclonal PHF1, 1:500 goat polyclonal TIA1 (Santa Cruz), 1:500 mouse monoclonal synaptophysin (Santa Cruz), 1:1,000 mouse monoclonal PSD-95 (NeuroMab), 1:1,000 rabbit polyclonal caspase-3 or cleaved caspase 3 (Cell Signaling), or 1:10,000 mouse monoclonal actin (Millipore) in PBS. Secondary antibody was incubated in 5% milk for 1 hr at RT. Developing was done using SuperSignal West Pico Substrate (Thermo).

caspase-3 = assay: Caspase cleavage (Caspase-Glo 3/7) in neurons co-transduced with TIA1 and tau; type: cell-based, mouse; conditions: salubrinal 25 μM
Method: Caspase 3/7 cleavage was quantified with the Caspase-Glo 3/7 Assay kit, Promega. Apoptosis detected DNA fragmentation (TiterTACS Colorimetric Apoptosis Detection kit, Trevigen).
Caspase 3/7 cleavage was quantified with the Caspase-Glo 3/7 Assay kit, Promega. Apoptosis was analyzed by quantifying DNA fragmentation (TiterTACS Colorimetric Apoptosis Detection kit, Trevigen).

fold increase in the ratio of MT-bound (P) to unbound (S) tau, P301S TIA1+/- against P301S TIA1+/+ [1]: 3 fold
Molecule: human 1N4R tau with the P301S mutation (PS19 transgene) (from UniProt P10636 2-412)

Molecule: Cn1cc(-c2[nH][nH]c(=O)c2-c2cn(C)c3ccccc23)c2ccccc21 [XXVI]
formation of granules positive for TIA1 and phospho-tau (SGs and tau granules) [2]: inhibition of SGs and tau granules

Molecule: Cn1cc(-c2ccc3c(c2)CCN3C(=O)Cc2cccc(C(F)(F)F)c2)c2c(N)ncnc21 [GSK2606414]
tau-mediated SG formation (SG number) [3]: strongly inhibited; also recorded: Inhibition

Molecule: O=C1Nc2ccc3ncsc3c2/C1=C/c1cnc[nH]1 [C16]
tau-mediated SG formation (SG number) [3]: strongly inhibited; also recorded: Inhibition

Molecule: C[C@@H]1C[C@@H]([C@H](O)CC2CC(=O)NC(=O)C2)C(=O)[C@@H](C)C1 [cycloheximide]
formation of tau/SG complexes (tau+ SGs) ([4]; HT22 cells over-expressing TIA1 and WT or P301L tau, arsenite, cycloheximide 10 μg/ml): prevented formation of the tau/SG complexes; also recorded: reversed
formation of tau granules [4]: prevented formation of tau granules
tau granules in dendritic processes (Tau13, MAP2 imaging) [5]: spread diffusely with only small, less defined granules apparent
dendrite length [6]: did not affect dendrite length

Molecule: CCN(CC)CCCC(C)Nc1ccnc2cc(Cl)ccc12 (centres unmarked) [chloroquine]
decreases in tau associated with TIA1 over-expression (tau): neither MG132 nor chloroquine prevented decreases in tau

Molecule: COc1ccc(C[C@H](N)C(=O)N[C@H]2[C@@H](O)[C@H](n3cnc4c(N(C)C)ncnc43)O[C@@H]2CO)cc1 [puromycin]
formation of tau granules [4]: stimulated formation of tau granules
tau granules in dendritic processes (Tau13, MAP2 imaging) [5]: larger and more abundant tau granules
dendrite length [6]: potentiated the decrease in dendritic length

Molecule: C[S+]([O-])c1ccc(-c2nc(-c3ccncc3)c(-c3ccc(F)cc3)[nH]2)cc1 (centres unmarked) [SB203580]
SG inhibition, comparison among the kinase inhibitors [2]: strongest SG inhibition
formation of granules positive for TIA1 and phospho-tau (SGs and tau granules) [2]: Inhibition

Molecule: CC(C)C[C@@H](C=O)NC(=O)[C@H](CC(C)C)NC(=O)[C@H](CC(C)C)NC(=O)OCc1ccccc1 [MG132] (Cbz-Leu-Leu-Leu-aldehyde)
decreases in tau associated with TIA1 over-expression (tau): neither MG132 nor chloroquine prevented decreases in tau

levels of cleaved caspase-3 (caspase cleavage) (caspase-3): potentiated
Molecule: O=C(/C=C/c1ccccc1)NC(NC(=S)Nc1cccc2cccnc12)C(Cl)(Cl)Cl (centres unmarked) [salubrinal]
SG levels ([4]; HT22 cells expressing tau, salubrinal 25 uM): enhanced SG levels
number of SGs ([4]; HT22 cells, P301L, P301L PMIM or P301L PNULL tau ± TIA1-RFP, salubrinal 25 μM): increased the number of SGs in all conditions

Molecule: CC(C)(C)n1nc(-c2ccc(Cl)cc2)c2c(N)ncnc21 [PP2]
formation of granules positive for TIA1 and phospho-tau (SGs and tau granules) [2]: inhibition of SGs and tau granules

Molecule: alkylbenzyldimethyammonium chloride
formation of granules positive for TIA1 and phospho-tau (SGs and tau granules) [2]: inhibition of SGs and tau granules
